Results on two compounds are retold here after patent EP1372636B1, “METRONOMIC DOSING OF TAXANES FOR INHIBITING TUMOR GROWTH” (Bristol-Myers Squibb Company, priority 2001, dated 2002).

Like-named read-outs stand apart in the source and are kept apart here.

For orientation: MTD means the highest dose tested that stayed within the study's limit of toxicity.

Series [1] concerns human umbilical vein endothelial cell (HUVEC). As to the kind of experiment: HUVEC proliferation (3H-thymidine incorporation). The class given is cell-based. As to conditions: for IC50: Homo sapiens, HUVEC, read-out: IC50 in Cells HUVEC. A general note: Incorporation of labelled thymidine or its analogues reports DNA synthesis.
Experimental: (§4) Primary human umbilical vein endothelial cells (HUVEC) were purchased from CLONETICS Inc. (San Diego, CA) and used at passage 2 to 3. Proliferation was measured using ^3H-thymidine incorporation in cells by pulsing twenty-four hours prior to harvesting cell cultures. The human breast carcinoma line H3396 was used to assess activity of compound on tumor cells. Cells (2 x 10^3) were plated on collagen IV coated 96 well plates. Twenty-four hours later, compounds were added at varying concentrations. After 48 hours, ^3H-thymidine was added and cells were allowed to incorporate this label over a twenty-four hour period. Cellular extracts were harvested onto glass filters and incorporated radioactivity was determined by counting in a Beta scintillation counter. The IC50, defined as the drug concentration that causes 50% inhibition of ^3H-thymidine incorporation, was extrapolated from the plotted data.
Series [2] has as its system human breast carcinoma line H3396. In words: H3396 tumor cell proliferation (3H-thymidine incorporation). The series is classed as cell-based.
Experimental: as §4
The test system of a further series is HUVEC. As to the kind of experiment: In vitro HUVEC tube formation on […]. The class given is cell-based, human. Details: key: C= complete; P= partial. The method, then:
Angiogenesis results in a network of functional blood vessels that contain red blood cells. In vitro assays that, in part, mimic that process have been established. Primary endothelial cells such as HUVEC when placed on […] (Collaborative Research, Inc.) form a three-dimensional network of tubes that align into cords. In this assay system, tube formation was evaluated on an extracellular protein matrix consisting of […] diluted 1:1 with culture media (EBM-2; CLONETICS, Inc.) and allowed to polymerize for 60 minutes at 37 C. […] Eighteen hours following the plating of cells, the media was removed and cultures were fixed in formalin. Inhibition of tubes on […] is evaluated on an inverted microscope using phase contrast lighting. To determine the effect of compounds in this assay, a descriptive approach was developed. […] Partial inhibition is defined as an incomplete network with a large number of single cells. Complete inhibition is defined as greater than 99% of cells occurring as single cells with no elongated or branching structures. The number of single cells occurring after vehicle treatment (control) is subtracted from the total number of single cells occurring in the treated groups prior to assessing the effects of test compounds for establishing background effects.

Series [3] can be described thus: In vivo […] plug angiogenesis model (number of endothelial cells in plugs). Set-up: species or system athymic (nu/nu) Balb/c mice. To be noted: mouse, in vivo, read-out: maximum tolerated dose (MTD). The method, then: (§1) LX1 human lung tumor fragments that were maintained by serial subcutaneous passage in athymic (nu/nu) Balb/c mice were implanted subcutaneously as small fragments approximately 0.1 mm^3 in size. Tumor volume doubling time for this tumor in these studies was 2.8 days. When tumors reached the size range of 150-200 mm^3, liquid […] was injected subcutaneously on the side contralateral to the tumor. Treatment was initiated 24 hours later at varying doses and schedules. Prior to implanting, […] is prepared by placing solidified […] on ice overnight at 4 C in accordance with the method described by Passiniti et al. (Lab. Invest. 1992 67:519-28). At the liquid phase and while on ice, VEGF and bFGF (Peprotech, Inc. Rocky Hill, NJ) is added to the […] at final respective concentrations of 75 ng/ml and 300 ng/ml. Stock solutions of these growth factors are made fresh at […] in PBS. Twenty-four hours following final treatment, animals were sacrificed by cervical dislocation and […] plugs from treated and control animals were excised and fixed for at least 48 hours in 10% neutral buffered formalin. These plugs were then processed for paraffin embedding and sectioned at 5 µm thickness followed by staining with hematoxylin and eosin prior to quantitative analysis. The number of endothelial cells in plugs was quantitated using the IMAGEPRO PLUS software (Media Cybernetics, Inc., Silver Spring, MD) at a magnification of 20x. Fifty fields of view from each plug were used for counting the number of endothelial cells. The number of cells were summarized and compared statistically to controls.
(§2) Angiogenesis is evaluated in these plugs as the number of endothelial cells migrating into plugs from compound treated groups relative to the vehicle treated group. Tumors were implanted for the purpose of monitoring the anti-tumor effects of these compounds throughout these studies in order to assure compound efficacy at the therapeutic doses.
(§3) For TAXOL, normal saline was used as the diluent and delivery was made intravenously. For the oral taxane of Formula I, sterilized water was used as the diluent and delivery was by oral gavage.

In series [4] the test system is endothelial cells occurring in MATRIGEL plugs. The description is as above. Details: species or system athymic (nu/nu) Balb/c mice. To be noted: q2dx5; for reduction of cell number in plugs: oral gavage. The method, then: as §1, §2, §3
A short description of series [5]: Oral bioavailability in the rat. The class given is in vivo.
A short description of series [6]: Oral bioavailability in the dog. The class given is in vivo.
The test system of series [7] is mammary 16/C murine carcinoma. In words: Staged subcutaneous mammary 16/C carcinoma in mice, gross log cell kill. The class given is in vivo, C3H mice. The text has this:
The final concentrations of each component of the vehicle was as follows: CREMOPHOR 10%; ethanol 10%; aqueous 80%.
C3H conventional mice were purchased from Harlan-Sprague Dawley (Indianapolis, IN) and fed mouse chow and water ad libitum.
The metastatic mammary 16/C murine carcinoma was propagated biweekly in C3H mice. Experiments were initiated by subcutaneous insertion by trocar of tumor fragments.
For in vivo tumor testing, the C3H mice were implanted subcutaneously with mammary 16/C tumor fragments. All treatments were initiated on Day 10 post-tumor implant, except for an untreated control group. All groups contained 8 mice. Tumors were measured once or twice weekly and dimensions were converted to weights using the formula Weight (milligrams)= a x b^2, where a=length and b=width (in millimeters). The median time for tumors within each group of mice to reach 1 gram was determined and the delays in median time to reach 1 gram tumor target size for treated (T) versus control (C) groups was calculated. These delays in tumor growth (T-C value in days) were further converted to gross log cell kill (LCK) values using the formula T-C/(tumor volume doubling time, TVDT, of the control group) x (3.32). A LCK of greater than or equal to 1 LCK was considered an active result. Cures were assessed at the end of each experiment and defined in the absence of a tumor mass of greater than 35 milligrams. Experiments were terminated more than 10 x TVDT following the completion of all treatments.

Text for L2987 human lung tumor: L2987 human lung tumors were implanted and allowed to reach 50 to 100 mm^3 before drug administration.

`COC(=O)O[C@@]12CO[C@@H]1C[C@H](O)[C@@]1(C)C(=O)[C@H](OC(C)=O)C3=C(C)[C@@H](OC(=O)[C@H](O)[C@@H](NC(=O)OC(C)(C)C)C(C)(C)C)C[C@@](O)([C@@H](OC(=O)c4ccccc4)[C@H]21)C3(C)C` [Formula I, 3'-tert-Butyl-3'-N-tert-butyloxycarbonyl-4-deacetyl-3'-dephenyl-3'-N-debenzoyl-4-O-methoxycarbonyl-paclitaxel]: the IC50 in series [1] stood at 2 nM; in series [2] (H3396, read-out: IC50 in Cells H3396, 3H-thymidine incorporation, two separate experiments (two columns)) it was 2 nM. For the same compound, the “Inhibition of HUVEC Tube Formation on MATRIGEL” value is recorded as “P” with HUVEC (0.0005µM); “P” in the series on HUVEC (0.0050µM); “C” with HUVEC (0.0500µM); “C” in the series with HUVEC (0.5000µM); “C” with HUVEC (5.000µM). The MTD in [3] (po) was found to be 60 mg/kg. The “reduction of cell number in plugs” value in series [4] (18 mg/kg), in [4] (36 mg/kg) and in series [4] (60 mg/kg (MTD)) was “greater than 50%” throughout. Besides, the oral bioavailability entry in [5] and in series [6] was “good” in each case. Also, the weight loss entry in the series with L2987 human lung tumor (20 mg/kg orally, metronomic schedule q2dx15) is on record as “no weight loss was observed”; in the series on L2987 human lung tumor (60 mg/kg orally, standard schedule q2dx5), “weight loss was also observed”. Also, the tumor growth result in the series with L2987 human lung tumor (20 mg/kg orally, metronomic schedule q2dx15 (cumulative 300 mg/kg)) is on record as “suppressed tumor growth”. For the same compound, in the series on L2987 human lung tumor (60 mg/kg orally, standard schedule q2dx5 (cumulative 300 mg/kg), compared with metronomic regime), the anti-tumor response result was “greater anti-tumor response”.

Consider `CC(=O)O[C@H]1C(=O)[C@@]2(C)[C@H]([C@H](OC(=O)c3ccccc3)[C@]3(O)C[C@H](OC(=O)[C@H](O)[C@@H](NC(=O)c4ccccc4)c4ccccc4)C(C)=C1C3(C)C)[C@]1(OC(C)=O)CO[C@@H]1C[C@@H]2O` [TAXOL, paclitaxel], for which the IC50 in series [1] (3H-thymidine incorporation, two separate experiments (two columns)) came to 3 nM; in [2] (H3396, 3H-thymidine incorporation, two separate experiments (two columns), read-out: IC50 in Cells H3396), 3 nM. Also, the H3396/HUVEC in series [1] (ratio of IC50 in H3396 to IC50 in HUVEC) was 0.88. For the same compound, the “Inhibition of HUVEC Tube Formation on MATRIGEL” value with HUVEC (0.0005µM) is listed as “P”; in the series on HUVEC (0.0050µM) it was “P”; in the series with HUVEC (0.0500µM) it was “C”; in the series on HUVEC (0.5000µM), “C”; in the series with HUVEC (5.000µM), “C”. For the same compound, the MTD in series [3] (athymic (nu/nu) Balb/c, intravenous) was 24 mg/kg. For the same compound, in [4] (24 mg/kg (MTD), intravenously), the “reduction in cell number in MATRIGEL plugs compared to control groups” value is “greater than 50%”. Moreover, the “Gross LCK” value was found to be 4.5 in [7] (Paclitaxel 20 mg/kg/inj qd 10-14 iv, no Formula I, Paclitaxel 20 mg/kg/inj qd 32-36 iv); 4.7 in series [7] (Paclitaxel 20 mg/kg/inj qd 10-14 iv, no Formula I, Paclitaxel 30 mg/kg/inj qd 32-36 iv); 1.9 in series [7] (Paclitaxel 30 mg/kg/inj qd 10-14 iv alone (single course)); 1.9 in series [7] (Paclitaxel 45 mg/kg/inj qd 10-14 iv alone (single course)). Besides, the cures/total is listed as 2/8 in [7] (Paclitaxel 30 mg/kg/inj qd 10-14 iv alone, Cures assessed on Day 60); 1/8 in series [7] (Paclitaxel 45 mg/kg/inj qd 10-14 iv alone, Cures assessed on Day 60 post tumor implant); 1/8 in [7] (Paclitaxel 20 qd 10-14 iv, no Formula I, Paclitaxel 30 qd 32-36 iv, Cures assessed on Day 88); 2/8 in series [7] (Paclitaxel 30 qd 10-14 iv, no Formula I, Paclitaxel 30 qd 32-36 iv, Cures assessed on Day 88 post-tumor implant, listed as Paclitaxel); 2 of 8 in series [7] (Paclitaxel 30 qd 10-14 iv, no Formula I, Paclitaxel 30 qd 32-36 iv, Cures assessed on Day 88 post-tumor implant, listed as paclitaxel). Further, the MTD regimen in [7] (qdx5, iv, beginning on Day 10 post-tumor implant) came out at 45 mg/kg/injection.
